For experiment [1], the target named is T1, Ubiquitin carboxyl-terminal hydrolase 7 (Homo sapiens, UniProt Q93009). In words: Inhibition of human USP7 using Ub-EKL as substrate.
Experiment [2] addresses T1, Ubiquitin carboxyl-terminal hydrolase 7. In words: Inhibition of human USP7 using Ub-AMC as substrate.

Broadly, the pEC50 is −log10 of the EC50, conventionally taken in molar units. The low end stands for a large EC50, the high end for a small EC50. Usually pIC50 stands for the negative decadic logarithm of the IC50, by convention in mol/L. A high value points to a small IC50.

pEC50, pIC50: −log10 of the molar value. Values joined by “and” are separate entries in the source; they are usually repeats but may differ in a detail not shown here. Equal entries are not always repeated.

T1 sequence (Q93009 whole entry): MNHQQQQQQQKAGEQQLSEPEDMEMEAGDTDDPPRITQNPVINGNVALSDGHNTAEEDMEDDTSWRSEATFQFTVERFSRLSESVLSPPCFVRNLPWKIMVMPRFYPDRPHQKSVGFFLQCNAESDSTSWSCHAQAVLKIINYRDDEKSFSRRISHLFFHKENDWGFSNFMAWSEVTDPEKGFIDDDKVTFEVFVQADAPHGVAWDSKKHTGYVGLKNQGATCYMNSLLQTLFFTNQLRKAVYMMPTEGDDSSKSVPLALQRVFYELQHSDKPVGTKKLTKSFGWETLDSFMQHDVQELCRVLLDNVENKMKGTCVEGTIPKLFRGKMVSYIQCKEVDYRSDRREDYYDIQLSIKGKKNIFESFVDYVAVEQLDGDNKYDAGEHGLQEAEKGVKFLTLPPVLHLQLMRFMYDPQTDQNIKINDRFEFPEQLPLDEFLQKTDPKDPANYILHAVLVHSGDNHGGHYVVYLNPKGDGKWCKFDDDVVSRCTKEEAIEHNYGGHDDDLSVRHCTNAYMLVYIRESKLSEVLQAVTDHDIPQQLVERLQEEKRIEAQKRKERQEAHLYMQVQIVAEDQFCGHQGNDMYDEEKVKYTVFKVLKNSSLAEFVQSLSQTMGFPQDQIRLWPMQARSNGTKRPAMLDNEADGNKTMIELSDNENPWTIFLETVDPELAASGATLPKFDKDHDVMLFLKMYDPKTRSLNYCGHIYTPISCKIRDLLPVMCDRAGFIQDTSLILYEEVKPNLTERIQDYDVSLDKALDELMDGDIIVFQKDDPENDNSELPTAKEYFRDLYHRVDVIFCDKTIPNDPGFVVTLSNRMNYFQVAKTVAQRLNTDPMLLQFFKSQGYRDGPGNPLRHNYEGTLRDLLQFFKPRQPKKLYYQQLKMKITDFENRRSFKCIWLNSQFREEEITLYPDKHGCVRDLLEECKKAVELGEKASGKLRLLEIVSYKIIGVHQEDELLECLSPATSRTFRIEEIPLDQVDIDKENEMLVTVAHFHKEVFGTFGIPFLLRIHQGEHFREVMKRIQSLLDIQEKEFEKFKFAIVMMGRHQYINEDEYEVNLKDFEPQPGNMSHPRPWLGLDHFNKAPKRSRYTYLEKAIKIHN

As for `COCCOCCN(C(=O)c1nnc(Sc2c(Cl)cncc2Cl)s1)c1ccc2c(c1)S(=O)(=O)CC2`, the pEC50 in experiment [1] is 5.70. Turning to `O=c1c2ccc(Cl)cc2ncn1CC1(O)CCN(CCCc2ccccc2)CC1`, the pIC50 in experiment [2] was under 4.00. With `CC(CC(=O)N1CCC(O)(Cn2cnc3cc(NC(=O)CCN4CCN(C)CC4)ccc3c2=O)CC1)c1ccccc1` (stereo not drawn), in experiment [2], the pIC50 is 6.25.

Compound `CN(C)CCCOc1ccc(NC(=O)c2nnc(Sc3c(Cl)cncc3Cl)o2)cc1` gave a pEC50 in experiment [1] of under 5.00.

Take `CNS(=O)(=O)c1ccc(NC(=O)c2nnc(Sc3c(Cl)cncc3Cl)s2)cc1`: the negative-log EC50 (pEC50) in experiment [1] is over 6.00. As for `CC(=O)N1CCC(O)(Cn2cnc3cc(Cl)ccc3c2=O)CC1`, the pIC50 in experiment [2] was under 4.00. Compound `N#CC1(Cn2cnc3cc(Cl)ccc3c2=O)CCN(C(=O)CCc2ccccc2)CC1` gave a pIC50 in experiment [2] of under 4.00. In experiment [1], `O=C(Nc1ccc2c(c1)C(=O)CC2)c1nnc(Sc2c(Cl)cncc2Cl)s1` had a pEC50 of 6.00. The compound `CN(C)CCCOc1ccc(NC(=O)c2cnc(Sc3c(Cl)cncc3Cl)s2)cc1` had a pEC50 in experiment [1] of under 5.00. The same measure, in the same setting: the figure for `CN(C)CCCOc1ccc(NC(=O)c2nnc(Sc3c(Cl)cncc3Br)s2)cc1` is over 6.00.

Turning to `Cc1c(NC(=O)c2nnc(Sc3c(Cl)cncc3Cl)s2)ccc2c1S(=O)(=O)CC2`, the negative-log EC50 (pEC50) in experiment [1] was 5.70.

In the case of `CN(C)CCCNC1CS(=O)(=O)c2cc(NC(=O)c3cnc(Sc4c(Cl)cncc4Cl)s3)ccc21` (stereo not drawn), the pEC50 in experiment [1] was over 6.00. In turn, `CC1CS(=O)(=O)c2cc(NC(=O)c3nnc(Sc4c(Cl)cncc4Cl)s3)ccc21` (stereo not drawn) showed a pEC50 in experiment [1] of 6.00. Turning to `O=C(Nc1ccc(NCCCN2CCOCC2)cc1)c1nnc(Sc2c(Cl)cncc2Cl)s1`, the pEC50 in experiment [1] is over 6.00. Regarding `CC(CC(=O)N1CCC(O)(Cn2cnc3cc(NC(=O)CCN4CCCCC4)ccc3c2=O)CC1)c1ccccc1` (stereo not drawn), the negative logarithm of the IC50 (pIC50) in experiment [2] is 6.46. For `CC1CS(=O)(=O)c2cc(NC(=O)c3cnc(Sc4c(Cl)cncc4Cl)s3)ccc21` (stereo not drawn), in experiment [1], the negative logarithm of the EC50 (pEC50) is 5.70. With `O=C(Nc1ccc2c(c1)S(=O)(=O)C=C2)c1cnc(Sc2c(Cl)cncc2Cl)o1`, the negative-log EC50 (pEC50) in experiment [1] is under 5.00. For the compound `O=C(Nc1ccc2c(c1)S(=O)(=O)C=C2)c1nnc(Sc2c(Cl)cncc2Cl)s1`, the negative logarithm of the EC50 (pEC50) in experiment [1] is over 6.00.

In experiment [2], `CC(C)C(CC(=O)N1CCC(O)(Cn2cnc3cc(NC(=O)CCN4CCN(C)CC4)ccc3c2=O)CC1)c1ccccc1` (stereo not drawn) had a negative-log IC50 (pIC50) of 6.57. `CN(C)CCCOc1ccc(NC(=O)c2nnc(Sc3c(Cl)cncc3Cl)s2)cc1` showed a negative-log EC50 (pEC50) in experiment [1] of over 6.00. The same measure, in the same setting: the figure for `CN(C)CCOc1cccc(NC(=O)c2nnc(Sc3c(Cl)cncc3Cl)s2)c1` is over 6.00; for `CN(C)CC(O)COc1ccc(NC(=O)c2nnc(Sc3c(Cl)cncc3Cl)s2)cc1` (stereo not drawn) it is over 6.00; for `O=C(Nc1ccc2c(c1)S(=O)(=O)C=C2)c1nnc(Sc2c(F)cncc2Cl)s1` it is 5.30.

Turning to `C[C@H](CC(=O)N1CCC(O)(Cn2cnc3cc(Cl)ccc3c2=O)CC1)c1ccccc1`, in experiment [2], the pIC50 was 6.38.

`O=C(Nc1ccc2c(c1)S(=O)(=O)CC2NCCN1CCOCC1)c1nnc(Sc2c(Cl)cncc2Cl)s1` (stereo not drawn) gave a pEC50 in experiment [1] of over 6.00. The same measure, in the same setting: the figure for `O=C(Nc1ccc2c(c1)S(=O)(=O)C=C2)c1nnc(Sc2c(Cl)cncc2Cl)o1` is over 6.00; for `CN(C)CCNC1CS(=O)(=O)c2cc(NC(=O)c3nnc(Sc4c(Cl)cncc4Cl)s3)ccc21` (stereo not drawn) it is over 6.00. The compound `O=C(CCc1ccccc1)N1CCC(O)(Cn2cnc3cc(Cl)ccc3c2=O)CC1` had a pIC50 in experiment [2] of 4.92. In turn, `O=C(Cc1ccccc1)N1CCC(O)(Cn2cnc3cc(Cl)ccc3c2=O)CC1` had a pIC50 in experiment [2] of under 4.00.

In turn, `CN(C)CCCNc1ccc(NC(=O)c2nnc(Sc3c(Cl)cncc3Cl)s2)cc1` showed a pEC50 in experiment [1] of over 6.00. As for `C[C@@H](CC(=O)N1CCC(O)(Cn2cnc3cc(NC(=O)CCN4CCN(C)CC4)ccc3c2=O)CC1)c1ccccc1`, in experiment [2], the negative logarithm of the IC50 (pIC50) was 5.14 and 4.96. In experiment [1], `O=C(Nc1ccc2c(c1)S(=O)(=O)C=C2)c1nnc(Sc2c(Cl)cncc2Br)s1` gave a pEC50 of over 6.00. Consider `O=C(Nc1ccc2c(c1)S(=O)(=O)C=C2)c1cnc(Sc2ccncc2Cl)s1`, for which the pEC50 in experiment [1] is 5.30. As for `Nc1ncc(Cl)c(Sc2nnc(C(=O)Nc3ccc4c(c3)S(=O)(=O)C=C4)s2)c1Cl`, the negative logarithm of the EC50 (pEC50) in experiment [1] is 5.70.

The compound `CC(CC(=O)N1CCC(O)(Cn2cnc3cc(NC(=O)CCn4ccnc4)ccc3c2=O)CC1)c1ccccc1` (stereo not drawn) had a pIC50 in experiment [2] of 6.62. As for `CC(=O)c1cccc(NC(=O)c2nnc(Sc3c(Cl)cncc3Cl)s2)c1`, in experiment [1], the pEC50 was 6.00. Turning to `O=C(CCc1ccccc1)N1CCC(Cn2cnc3cc(Cl)ccc3c2=O)CC1`, the pIC50 in experiment [2] was under 4.00. In the case of `O=C(Nc1ccc2c(c1)S(=O)(=O)C=C2)c1sc(Sc2c(Cl)cncc2Cl)nc1C(F)(F)F`, the pEC50 in experiment [1] is 5.30. The compound `C[C@H](CC(=O)N1CCC(O)(Cn2cnc3cc(NC(=O)CCN4CCN(C)CC4)ccc3c2=O)CC1)c1ccccc1` showed a pIC50 in experiment [2] of 6.72. In the case of `O=C(Nc1ccc2c(c1)S(=O)(=O)C=C2)c1nnc(Sc2c(Cl)cccc2Cl)s1`, the pEC50 in experiment [1] is under 5.00. `O=C(CCc1ccccc1)N1CCC(O)(Cn2cnc3cc(Cl)ccc3c2=O)C1` (stereo not drawn): the pIC50 in experiment [2] is under 4.00. In experiment [1], `O=C(Nc1cccc(Cl)n1)c1nnc(Sc2c(Cl)cncc2Cl)s1` had a pEC50 of over 6.00.

In experiment [2], `C[C@H](CC(=O)N1CCC(O)(Cn2cnc3cc(NC(=O)CCN4CCOCC4)ccc3c2=O)CC1)c1ccccc1` gave a pIC50 of 6.32. In turn, `CC(CC(=O)N1CCC(O)(Cn2cnc3cc(Cl)ccc3c2=O)CC1)c1ccccc1` (stereo not drawn) gave a pIC50 in experiment [2] of 5.89. The compound `Cc1nc2ccc(NC(=O)c3nnc(Sc4c(Cl)cncc4Cl)s3)cc2s1` had a pEC50 in experiment [1] of 6.00. In the case of `C[C@@H](CC(=O)N1CCC(O)(Cn2cnc3cc(Cl)ccc3c2=O)CC1)c1ccccc1`, the pIC50 in experiment [2] was 4.40.

In experiment [2], `C[C@H](CC(=O)N1CCC(O)(Cn2cnc3cc(NC(=O)CCN(C)C)ccc3c2=O)CC1)c1ccccc1` gave a negative-log IC50 (pIC50) of 6.89. On to `CN(C(=O)c1nnc(Sc2c(Cl)cncc2Cl)s1)c1ccc2c(c1)S(=O)(=O)C=C2`, for which the pEC50 in experiment [1] was 6.00.
